Here are results for one substance from publication PMC7720687 (ERJ Open Research, 2020).

The target of test [1] is T1, epithelial sodium channel (ENaC) (Mus musculus, UniProt Q61180+Q9WU38+Q9WU39).
T1 sequence (Q61180 1-699): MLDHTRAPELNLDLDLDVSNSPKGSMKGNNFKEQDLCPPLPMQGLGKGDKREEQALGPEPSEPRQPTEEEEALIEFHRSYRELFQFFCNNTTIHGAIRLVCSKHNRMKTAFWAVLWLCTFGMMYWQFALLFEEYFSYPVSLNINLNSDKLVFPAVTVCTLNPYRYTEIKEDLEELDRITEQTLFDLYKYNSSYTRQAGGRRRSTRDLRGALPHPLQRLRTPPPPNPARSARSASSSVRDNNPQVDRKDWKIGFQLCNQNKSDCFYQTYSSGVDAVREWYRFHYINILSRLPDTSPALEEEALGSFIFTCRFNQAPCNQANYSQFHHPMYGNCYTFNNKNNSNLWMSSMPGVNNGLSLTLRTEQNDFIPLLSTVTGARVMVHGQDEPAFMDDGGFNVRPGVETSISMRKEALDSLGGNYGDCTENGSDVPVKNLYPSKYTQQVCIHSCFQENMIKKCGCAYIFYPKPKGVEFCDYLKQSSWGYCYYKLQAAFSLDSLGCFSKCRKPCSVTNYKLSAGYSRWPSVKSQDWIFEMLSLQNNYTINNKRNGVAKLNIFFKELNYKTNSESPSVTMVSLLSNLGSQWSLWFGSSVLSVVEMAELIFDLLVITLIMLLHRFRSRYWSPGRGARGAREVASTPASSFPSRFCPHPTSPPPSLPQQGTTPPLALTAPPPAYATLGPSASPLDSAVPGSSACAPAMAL
T1 sequence (Q9WU38 1-638): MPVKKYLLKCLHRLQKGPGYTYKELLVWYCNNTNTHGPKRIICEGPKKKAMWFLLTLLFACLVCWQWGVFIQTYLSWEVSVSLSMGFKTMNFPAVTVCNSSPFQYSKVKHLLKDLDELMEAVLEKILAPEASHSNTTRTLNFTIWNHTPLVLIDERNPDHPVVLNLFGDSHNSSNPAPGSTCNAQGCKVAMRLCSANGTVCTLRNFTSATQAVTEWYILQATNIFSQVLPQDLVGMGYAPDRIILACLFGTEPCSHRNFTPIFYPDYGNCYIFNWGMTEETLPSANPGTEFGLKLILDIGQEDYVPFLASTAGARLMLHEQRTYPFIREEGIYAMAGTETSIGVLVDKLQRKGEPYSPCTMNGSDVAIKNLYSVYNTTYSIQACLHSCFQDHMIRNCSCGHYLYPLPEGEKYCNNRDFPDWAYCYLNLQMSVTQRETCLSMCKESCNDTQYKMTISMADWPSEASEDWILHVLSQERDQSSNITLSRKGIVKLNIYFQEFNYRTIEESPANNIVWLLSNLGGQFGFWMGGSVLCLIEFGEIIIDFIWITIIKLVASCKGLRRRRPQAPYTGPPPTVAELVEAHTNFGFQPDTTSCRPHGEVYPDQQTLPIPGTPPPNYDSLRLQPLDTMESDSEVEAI
T1 sequence (Q9WU39 1-655): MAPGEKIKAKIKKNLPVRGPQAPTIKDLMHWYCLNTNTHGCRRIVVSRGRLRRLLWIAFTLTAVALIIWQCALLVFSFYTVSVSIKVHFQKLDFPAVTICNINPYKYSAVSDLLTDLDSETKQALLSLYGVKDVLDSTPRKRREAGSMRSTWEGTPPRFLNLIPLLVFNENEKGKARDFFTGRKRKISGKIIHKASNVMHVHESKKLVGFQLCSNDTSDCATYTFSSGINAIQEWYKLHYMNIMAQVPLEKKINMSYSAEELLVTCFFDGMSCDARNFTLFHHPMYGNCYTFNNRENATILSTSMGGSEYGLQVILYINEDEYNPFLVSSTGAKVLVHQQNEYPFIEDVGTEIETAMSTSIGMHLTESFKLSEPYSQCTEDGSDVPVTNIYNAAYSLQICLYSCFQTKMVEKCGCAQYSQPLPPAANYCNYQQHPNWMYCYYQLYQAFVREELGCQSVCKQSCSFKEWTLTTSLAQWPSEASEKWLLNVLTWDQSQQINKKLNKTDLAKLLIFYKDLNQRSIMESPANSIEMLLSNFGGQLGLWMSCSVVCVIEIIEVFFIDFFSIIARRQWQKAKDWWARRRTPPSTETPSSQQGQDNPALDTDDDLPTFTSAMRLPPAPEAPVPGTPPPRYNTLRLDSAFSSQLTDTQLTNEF
As to the kind of experiment: Ussing chamber, amiloride-sensitive short-circuit current in M1 monolayers. The test is classed as cell-based.

Test [2] deals with T2, epithelial sodium channel (ENaC) (Homo sapiens, UniProt P37088+P51168+P51170).
T2 sequence (P37088 1-669): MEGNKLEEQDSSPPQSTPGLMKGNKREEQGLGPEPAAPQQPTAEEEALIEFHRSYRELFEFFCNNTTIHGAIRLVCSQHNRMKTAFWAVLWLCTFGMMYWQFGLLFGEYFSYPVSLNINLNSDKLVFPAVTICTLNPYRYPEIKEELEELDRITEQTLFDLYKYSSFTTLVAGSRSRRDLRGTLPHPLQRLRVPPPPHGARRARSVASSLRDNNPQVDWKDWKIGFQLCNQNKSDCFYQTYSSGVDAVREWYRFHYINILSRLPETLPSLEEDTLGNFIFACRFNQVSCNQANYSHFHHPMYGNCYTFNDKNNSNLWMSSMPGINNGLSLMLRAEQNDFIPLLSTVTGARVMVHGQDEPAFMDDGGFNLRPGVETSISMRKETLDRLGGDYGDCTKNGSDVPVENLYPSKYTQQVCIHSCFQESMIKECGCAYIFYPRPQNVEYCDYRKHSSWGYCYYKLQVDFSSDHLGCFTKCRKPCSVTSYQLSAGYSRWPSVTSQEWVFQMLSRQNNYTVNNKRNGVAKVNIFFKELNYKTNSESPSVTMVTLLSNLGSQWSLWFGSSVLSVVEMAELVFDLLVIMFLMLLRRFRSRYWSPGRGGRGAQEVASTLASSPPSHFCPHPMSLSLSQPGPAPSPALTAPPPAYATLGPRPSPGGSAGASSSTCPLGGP
T2 sequence (P51168 1-640): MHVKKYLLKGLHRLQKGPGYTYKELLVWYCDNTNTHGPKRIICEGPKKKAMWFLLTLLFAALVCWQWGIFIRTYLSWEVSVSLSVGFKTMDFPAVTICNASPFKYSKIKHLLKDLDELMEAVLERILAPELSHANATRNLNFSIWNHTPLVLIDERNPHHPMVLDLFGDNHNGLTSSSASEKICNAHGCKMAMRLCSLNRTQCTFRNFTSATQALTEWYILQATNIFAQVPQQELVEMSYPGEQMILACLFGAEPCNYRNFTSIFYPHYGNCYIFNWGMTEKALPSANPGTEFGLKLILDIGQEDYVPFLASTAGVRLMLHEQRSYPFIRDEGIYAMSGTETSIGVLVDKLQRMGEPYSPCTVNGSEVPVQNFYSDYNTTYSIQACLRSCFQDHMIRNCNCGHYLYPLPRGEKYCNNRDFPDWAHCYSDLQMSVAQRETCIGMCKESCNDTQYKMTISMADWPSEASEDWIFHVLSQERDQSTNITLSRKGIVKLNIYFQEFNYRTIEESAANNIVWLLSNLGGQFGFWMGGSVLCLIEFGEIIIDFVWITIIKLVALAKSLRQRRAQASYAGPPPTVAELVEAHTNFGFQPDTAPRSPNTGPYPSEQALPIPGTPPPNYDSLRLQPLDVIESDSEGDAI
T2 sequence (P51170 1-649): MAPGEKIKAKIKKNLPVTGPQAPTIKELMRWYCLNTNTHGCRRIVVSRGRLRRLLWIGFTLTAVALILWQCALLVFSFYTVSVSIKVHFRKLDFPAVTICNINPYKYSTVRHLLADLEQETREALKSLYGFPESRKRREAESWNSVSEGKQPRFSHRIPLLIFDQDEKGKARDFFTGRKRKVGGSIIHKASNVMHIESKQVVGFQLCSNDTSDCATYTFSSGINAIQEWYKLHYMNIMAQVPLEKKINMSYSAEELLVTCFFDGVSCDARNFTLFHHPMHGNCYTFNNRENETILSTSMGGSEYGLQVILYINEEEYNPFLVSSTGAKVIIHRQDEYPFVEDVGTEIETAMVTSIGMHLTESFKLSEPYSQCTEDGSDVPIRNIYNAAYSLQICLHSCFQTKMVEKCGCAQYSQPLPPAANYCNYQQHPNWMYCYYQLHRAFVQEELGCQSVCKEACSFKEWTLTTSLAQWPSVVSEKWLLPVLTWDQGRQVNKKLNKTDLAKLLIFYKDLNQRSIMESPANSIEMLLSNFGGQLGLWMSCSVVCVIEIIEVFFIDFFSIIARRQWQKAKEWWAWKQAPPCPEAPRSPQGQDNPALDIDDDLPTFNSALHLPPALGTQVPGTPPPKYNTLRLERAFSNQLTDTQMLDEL
The experiment in a line: Ussing chamber, amiloride-sensitive short-circuit current in NCI-H441 monolayers. It counts as cell-based.

As to BI 1265162, the results for the IC50 in test [1] and in test [2] were 3 nM and 8 nM, respectively.

What is called IC50 is the concentration that gives 50% inhibition. Read a low IC50 as higher potency.
